Legend:
KB [1] = assay: Cytotoxicity against human KB cells; format: functional, cell-based
HCT-8 = assay: Cytotoxicity against human HCT8 cells; format: functional, cell-based
KB [2] = assay: Cytotoxicity against human KB cells at 10 ug/ml; format: functional

Structure (SMILES) | IC50 (KB [1]) [µg/mL] | IC50 (HCT-8) [µg/mL] | inhibition at 10 µg/mL (KB [2]) [%]
CCCCCCCCCCCC[C@@H](O)[C@H]1CC[C@H]([C@H](O)CCCCCCCCCC[C@@H](O)CC2=CC(C)(O)OC2=O)O1 (mixture of isomers) | < 1 | < 10 | –
CCCCCCCCCCCCCC[C@H](O)[C@@H](O)CC[C@H](O)[C@@H]1CC[C@@H](CCCCC[C@@H](O)CC2=CC(C)(O)OC2=O)O1 (mixture of isomers) [DONNAIENIN B/34-EPI-DONNAIENIN B] | – | – | 53.8

From ChEMBL document CHEMBL1145692, “New Type of Mono-tetrahydrofuran Ring Acetogenins from Goniothalamus donnaiensis” (J Nat Prod, 1997)
